Values joined by “and” are separate entries in the source; they are usually repeats but may differ in a detail not shown here. Identical values can stand only once.
Experiments:
[1] = cited from earlier work
[2] = tested on: patients with advanced solid tumors; settings: human, in vivo, 4 weeks
[3] = tested on: patients with advanced solid tumors; assay: Phase I dose escalation: dose-limiting toxicities, MTD and adverse events
[4] = tested on: tumor cell lines; settings: read-out: in vitro IC50 for tumor cell lines; cited from earlier work
[5] = triapine 0.01–1 mg/mL in 0.9 % sodium chloride, protected from light, room temperature or 2–8°C; cited from earlier work
[6] = Steady-state plasma triapine; type: in vivo, human; settings: for clearance: human, plasma
[7] = tested on: advanced solid tumors; assay: Tumor response; type: in vivo, human
[8] = tested on: human ribonucleotide reductase M2 subunit (hRRM2); assay: Circulating serum hRRM2 by ELISA; type: in vivo; settings: during treatment cycles 1 and 2, 21 of 28 patients
[9] = 36 patients, all dose levels, triapine + FDR gemcitabine
[10] = Arm A and B combined, dose 160, N=2, individual values
[11] = of 15 patients with stable disease
[12] = of 30 evaluable patients, triapine + FDR gemcitabine
[13] = of 30 evaluable patients, triapine + FDR gemcitabine, RECIST 1.0

In the case of Nc1ccn([C@@H]2O[C@H](CO)[C@@H](O)C2(F)F)c(=O)n1 [gemcitabine], the steady-state plasma levels ([1]; gemcitabine at fixed-dose-rate 10 mg/m^2/min) is given as 15 to 20 µmol/L and the “plasma gemcitabine concentration above which dFdCTP accumulation is saturated” value ([1]; peripheral blood mononuclear cells and circulating leukemic blasts) is given as 15 to 20 µmol/L.

In the case of NC(=S)NN=Cc1ncccc1N [triapine, 3-Aminopyridine-2-carboxaldehyde thiosemicarbazone], the “recommended phase II dose (RP2D)” value [2] is reported as 90 mg, the “Flu-Like Syndrome, Grade 1/2” value [3, 9] is reported as 4 (11) N (%) and the “Flu-Like Syndrome, Grade 3” value [3, 9] is reported as 0 N (%). For the same molecule, the “Flu-Like Syndrome, Grade 4” value [3, 9] was 0 N (%), the “Infection, Grade 3” value [3, 9] was 3 (8) N (%) and the “Infection, Grade 4” value [3, 9] was 0 N (%). The “MTD (maximum tolerated dose)” value ([3]; triapine 24-hour infusion immediately followed by gemcitabine 1000 mg/m^2 (100-minute infusion), every 2 weeks of a 4-week cycle) was 90 mg, the IC50 [4] was 1000 to 2000 nM and the stability of admixture [5] was 96 h. It also gave a Css ([6]; Arm A and B combined, 31 patients, 75 to 160 mg over 24-hour i.v. infusion Day 1, mean ± SD) of 400 ± 140 nM, a Css ([6]; Arm A and B combined, dose 75, N=5, mean ± SD) of 370 ± 50 nM and a Css ([6]; Arm A and B combined, dose 90, N=15, mean ± SD) of 380 ± 180 nM. The Css ([6]; Arm A and B combined, dose 120, N=9, mean ± SD) was 440 ± 120 nM, the CL [6, 10] was 42.80 L/h and the Css [6, 10] was 520 nM and 460 nM. For the same molecule, the “Css (range)” value ([6]; Arm A, 75 to 160 mg) was 240 to 820 nM, the Css ([6]; Arm A, all doses 75 to 160 mg, mean ± SD) was 430 ± 140 nM and the Css ([6]; Arm A, dose 75 (head prints mg/m^2), 24-h i.v. infusion, day 1 cycle 1, N=1) was 410 nM. For the same molecule, the Css ([6]; Arm A, dose 90, 24-h i.v. infusion, N=5, mean ± SD) was 450 ± 230 nM, the Css ([6]; Arm A, dose 120, 24-h i.v. infusion, N=5, mean ± SD) was 390 ± 90 nM and the Css ([6]; Arm A, dose 160, 24-h i.v. infusion, N=2, individual values) was 520 nM and 460 nM. The CL ([6]; Arm A, dose 160, N=2, individual values) was 42.80 L/h, the “Css (range)” value ([6]; Arm B, 75 to 120 mg) was 190 to 720 nM and the Css ([6]; Arm B, all doses 75 to 120 mg, mean ± SD) was 380 ± 140 nM. For the same molecule, the Css ([6]; Arm B, dose 75, 24-h i.v. infusion, N=4, mean ± SD) was 360 ± 50 nM, the Css ([6]; Arm B, dose 90, 24-h i.v. infusion, N=10, mean ± SD) was 350 ± 150 nM and the Css ([6]; Arm B, dose 120, 24-h i.v. infusion, N=4, mean ± SD) was 470 ± 170 nM. The “mean Css” value ([6]; females, n = 18) was 440 ± 160 nM, the clearance ([6]; intravenous, 75 mg, CL, Arm B, dose 75, N=4, mean ± SD) was 431 mL/min and the clearance ([6]; intravenous, 90 mg, CL, Arm A, dose 90, N=5, mean ± SD) was 497 mL/min. The clearance ([6]; intravenous, 90 mg, CL, Arm B, dose 90, N=10, mean ± SD) was 613 mL/min, the clearance ([6]; intravenous, 120 mg, CL, Arm A and B combined, dose 120, N=9, mean ± SD) was 596 mL/min and the clearance ([6]; intravenous, 120 mg, CL, Arm A, dose 120, N=5, mean ± SD) was 653 mL/min. The clearance ([6]; intravenous, 120 mg, CL, Arm B, dose 120, N=4, mean ± SD) was 560 mL/min, the clearance ([6]; intravenous, 160 mg, CL, Arm A, dose 160, N=2, individual values) was 635 mL/min and the clearance ([6]; intravenous, CL (range), Arm A and B combined, 31 patients, 75 to 160 mg) was 226 to 899 mL/min. For the same molecule, the clearance ([6]; intravenous, CL (range), Arm A, 75 to 160 mg) was 226 to 804 mL/min, the clearance ([6]; intravenous, CL (range), Arm B, 75 to 120 mg) was 265 to 899 mL/min and the clearance ([6]; intravenous, CL, Arm A, all doses 75 to 160 mg, mean ± SD) was 580 mL/min. For the same molecule, the clearance ([6]; intravenous, CL, Arm B, all doses 75 to 120 mg, mean ± SD) was 561 mL/min, the clearance ([6]; iv, CL, Arm A and B combined, 31 patients, 75 to 160 mg over 24-hour i.v. infusion Day 1, mean ± SD) was 562 mL/min and the “mean Css” value ([6]; males, n = 13) was 330 ± 80 nM. The “variability of Css and CL (coefficient of variation)” value ([6]; within and between dose groups) was “approximately 30%”, the “median time to progression” value ([7]; 15 patients with stable disease, 95 % CI 84–115 days) was 111 days and the disease control rate ([7]; 30 evaluable patients, SD + PR, triapine + FDR gemcitabine) was 53%. The “patients with prolonged stable disease more than 3 months” value [7, 11] was 12 patients, the “stable-disease patients who had previously progressed on gemcitabine” value [7, 11] was 7 patients and the “partial response (number of patients)” value [7, 12] was 1 patients. The “progressive disease (number of patients)” value [7, 12] was 14 patients, the “stable disease (number of patients)” value [7, 12] was 15 patients and the partial response [7, 13] was 3%. The stable disease [7, 13] was 50%, the “median time to tumor progression” value ([7]; patients with SD) was about 4 months and the “patients with decline in hRRM2 levels” value [8] was 75%.

Source: PMC3646991 (Investigational new drugs, 2012)
